Like-named read-outs stand apart in the source and are kept apart here.
Legend:
Format in all cases: cell-based
[1] = test system: Human T-lymphoblastic leukaemia cell line CEM; assay: MTT cytotoxicity screening assay, CEM; conditions: human T-lymphoblastic leukemia, 72 hours, read-out: TCS50
From the text: (§1) One of the parameters used as the basis for colorimetric assays is the metabolic activity of viable cells. For example, a microtiter assay which uses the tetrazolium salt MTT is now widely used to quantitate cell proliferation and cytotoxicity [Hajdúch M, Mihál V, Minarík J, Fáber E, Safárová M, Weigl E, Antálek P.: Cytotechnology, 1996, 19, 243-245]. For instance, this assay is used in drug screening programs and in chemosensitivity testing. Because tetrazolium salts are cleaved only by metabolically active cells, these assays exclusively detect viable cells. In the case of the MTT assay, yellow soluble tetrazolium salt is reduced to a coloured water-insoluble formazan salt. After it is solubilized, the formazan formed can easily and rapidly be quantified in a conventional ELISA plate reader at 570 nm (maximum absorbency). The quantity of reduced formazan corresponds to the number of vital cells in the culture.
(§2) Human T-lymphoblastic leukaemia cell line CEM was used for routine screening of these compounds. […] The cells were maintained in Nunc/Corning 80 cm^2 plastic tissue culture flasks and cultured in cell culture medium (DMEM with 5 g/l glucose, 2 mM glutamine, 100 U/ml penicillin, 100 μg/ml streptomycin, 10% foetal calf serum and sodium bicarbonate). Individual compounds were dissolved in 10% dimethylsulfoxide/saline, pH 8.0.
The cell suspensions that were prepared and diluted according to the particular cell type and the expected target cell density (2.500-30.000 cells per well based on cell growth characteristics) were added by pipette (80 μl) into 96/well microtiter plates. Inoculates were allowed a pre-incubation period of 24 hours at 37° C. and 5% CO2 for stabilisation. Four-fold dilutions of the intended test concentration were added at time zero in 20 μl aliquots to the microtiter plate wells. Usually, test compounds were evaluated at six 4-fold dilutions. In routine testing, the highest well concentration was 250 μM, but it may differ, depending on the agent. All drug concentrations were examined in duplicate. Incubations of cells with the test compounds lasted for 72 hours at 37° C., in 5% CO2 atmosphere and 100% humidity. At the end of the incubation period, the cells were assayed by using the MTT assay. Ten microliters of the MTT stock solution were pipetted into each well and incubated further for 1-4 hours. After this incubation period, formazan was solubilized by the addition of 100 μl/well of 10% SDS in water (pH=5.5) followed by further incubation at 37° C. overnight. The optical density (OD) was measured at 540 nm with the Labsystem iEMS Reader MF(UK). The tumour cell survival (TCS) was calculated using the following equitation: TCS=(ODdrug exposed well/mean ODcontrol wells)×100%. The TCS50 value, the drug concentration lethal to 50% of the tumour cells, was calculated from the obtained dose response curves.
To evaluate the anti-cancer activity of betulinines, their cytotoxic activity against CEM cell line was examined using the screening assay. Potent compounds were further tested against a panel of cell lines of different histogenetic and species origin (Table 2).

[2] = test system: K562-CdA human promyelocytic leukemia, cladrubin resistant; assay: MTT cytotoxicity assay, K562-CdA; conditions: 72 hours, read-out: TCS50
From the text: as §1, §2
(§3) The cell suspensions that were prepared and diluted according to the particular cell type and the expected target cell density (2.500-30.000 cells per well based on cell growth characteristics) were added by pipette (80 μl) into 96/well microtiter plates. […] Usually, test compounds were evaluated at six 4-fold dilutions. […] The optical density (OD) was measured at 540 nm with the Labsystem iEMS Reader MF(UK). The tumour cell survival (TCS) was calculated using the following equitation: TCS=(ODdrug exposed well/mean ODcontrol wells)×100%. The TCS50 value, the drug concentration lethal to 50% of the tumour cells, was calculated from the obtained dose response curves.

[3] = test system: K562-ARA-C human promyelocytic leukemia, cytarabin resistant; assay: MTT cytotoxicity assay, K562-ARA-C; conditions: 72 hours, read-out: TCS50
From the text: as §1, §2, §3

[4] = test system: HepG2 human hepatocellular carcinoma; assay: MTT cytotoxicity assay, HepG2; conditions: 72 hours, read-out: TCS50
From the text: as §1, §2, §3

[5] = test system: Caco-2 human colon cancer; assay: MTT cytotoxicity assay, Caco-2; conditions: 72 hours, read-out: TCS50
From the text: as §1, §2, §3

[6] = test system: CEM-VCR bulk human T-lymphoblastic leukemia, vincristin resistant; assay: MTT cytotoxicity assay, CEM-VCR bulk; conditions: 72 hours, read-out: TCS50
From the text: as §1, §2, §3

[7] = test system: CEM-DNR bulk human T-lymphoblastic leukemia, daunorubicin resistant; assay: MTT cytotoxicity assay, CEM-DNR bulk; conditions: 72 hours, read-out: TCS50
From the text: as §1, §2, §3

[8] = test system: CEM-VCR 1/F3 human T-lymphoblastic leukemia, vincristin resistant; assay: MTT cytotoxicity assay, CEM-VCR 1/F3; conditions: 72 hours, read-out: TCS50
From the text: as §1, §2, §3

[9] = test system: CEM-VCR 3/D5 human T-lymphoblastic leukemia, vincristin resistant; assay: MTT cytotoxicity assay, CEM-VCR 3/D5; conditions: 72 hours, read-out: TCS50
From the text: as §1, §2, §3

[10] = test system: human normal lymphocytes; assay: MTT cytotoxicity assay, normal lymphocytes; conditions: human normal lymphocytes (non-malignant), 72 hours, read-out: TCS50
From the text: as §1, §2, §3

[11] = test system: B16F mouse melanoma, metastatic cell line; assay: MTT cytotoxicity assay, B16F; conditions: 72 hours, read-out: TCS50
From the text: as §1, §2, §3

[12] = test system: NIH3T3 mouse immortalised fibroblasts; assay: MTT cytotoxicity assay, NIH3T3; conditions: NIH3T3, mouse immortalised fibroblasts (non-malignant), 72 hours, read-out: TCS50
From the text: as §1, §2, §3

[13] = test system: MEL-3 human melanoma; assay: MTT cytotoxicity assay, MEL-3; conditions: 72 hours, read-out: TCS50
From the text: as §1, §2, §3

[14] = test system: BT549 human breast cancer; assay: MTT cytotoxicity assay, BT549; conditions: 72 hours, read-out: TCS50
From the text: as §1, §2, §3

[15] = test system: Saos2 human; assay: MTT cytotoxicity assay, Saos2; conditions: p53−/−, Rb−/−, 72 hours, read-out: TCS50
From the text: as §1, §2, §3

[16] = test system: B16 mouse melanoma cell line; assay: MTT cytotoxicity assay, B16; conditions: 72 hours, read-out: TCS50
From the text: as §1, §2, §3

[17] = test system: SW620 human colon cancer, metastasis; assay: MTT cytotoxicity assay, SW620; conditions: read-out: TCS50
From the text: as §1, §2, §3

[18] = test system: K562-FLUD human promyelocytic leukemia, fludarabin resistant; assay: MTT cytotoxicity assay, K562-FLUD; conditions: 72 hours, read-out: TCS50
From the text: as §1, §2, §3

[19] = test system: U2OS human osteosarcoma; assay: MTT cytotoxicity assay, U2OS; conditions: p53+/−, Rb +/−, 72 hours, read-out: TCS50
From the text: as §1, §2, §3

[20] = test system: CEM-DNR 1/C2 human T-lymphoblastic leukemia, daunorubicin resistant; assay: MTT cytotoxicity assay, CEM-DNR 1/C2; conditions: 72 hours, read-out: TCS50
From the text: as §1, §2, §3

[21] = test system: U87MG human glioblastoma; assay: MTT cytotoxicity assay, U87MG; conditions: 72 hours, read-out: TCS50
From the text: as §1, §2, §3

[22] = test system: HT-29 human colon cancer; assay: MTT cytotoxicity assay, HT-29; conditions: 72 hours, read-out: TCS50
From the text: as §1, §2, §3

[23] = test system: A549 human lung adenocarcinoma; assay: MTT cytotoxicity assay, A549; conditions: 72 hours, read-out: TCS50
From the text: as §1, with “culture. […]” for “culture.”
(§4) The cell suspensions that were prepared and diluted according to the particular cell type and the expected target cell density (2.500-30.000 cells per well based on cell growth characteristics) were added by pipette (80 μl) into 96/well microtiter plates. […] Usually, test compounds were evaluated at six 4-fold dilutions. […] The optical density (OD) was measured at 540 nm with the Labsystem iEMS Reader MF(UK). […]

[24] = test system: MDA-MB-238 human breast cancer; assay: MTT cytotoxicity assay, MDA-MB-238; conditions: estrogen independent, p53mut/mut, 72 hours, read-out: TCS50
From the text: as §1, with “culture. […]” for “culture.”
as §4

[25] = test system: K562-GEM human promyelocytic leukemia, gemcitabin resistant; assay: MTT cytotoxicity assay, K562-GEM; conditions: 72 hours, read-out: TCS50
From the text: as §1, with “culture. […]” for “culture.”
as §4

[26] = test system: LNCaP human prostate cancer; assay: MTT cytotoxicity assay, LNCaP; conditions: androgen dependent, 72 hours, read-out: TCS50
From the text: as §1, with “culture. […]” for “culture.”
as §4

[27] = test system: MCF-7 human breast cancer; assay: MTT cytotoxicity assay, MCF-7; conditions: estrogen dependent, p53+/+, Rb +/+, 72 hours, read-out: TCS50
From the text: as §1, with “culture. […]” for “culture.”
as §4

[28] = test system: OVCAR-3 human ovarian cancer; assay: MTT cytotoxicity assay, OVCAR-3; conditions: 72 hours, read-out: TCS50
From the text: as §1, with “culture. […]” for “culture.”
as §4

[29] = test system: DU145 human prostate cancer; assay: MTT cytotoxicity assay, DU145; conditions: androgen independent, Rb−/−, 72 hours, read-out: TCS50
From the text: as §1, with “culture. […]” for “culture.”
as §4

Compound | IC50 [1] [µM] | IC50 [2] [µM] | IC50 [3] [µM] | IC50 [4] [µM] | IC50 [5] [µM] | IC50 [6] [µM] | IC50 [7] [µM] | IC50 [8] [µM] | IC50 [9] [µM] | IC50 [11] [µM] | IC50 [12] [µM] | IC50 [13] [µM] | IC50 [16] [µM] | IC50 [18] [µM] | IC50 [19] [µM] | IC50 [20] [µM] | IC50 [22] [µM] | IC50 [23] [µM] | IC50 [24] [µM] | IC50 [10] [µM] | further results
3β-acetoxy-lup-20(29)-en-28-oyl fluoride [II.55] | 19 |  |  |  |  |  |  |  |  |  |  |  |  |  |  |  |  |  |  |  | 
C=C(C)[C@@H]1CC[C@]2(C(=O)O)CC[C@]3(C)[C@H](CC[C@@H]4[C@@]5(C)CC[C@H](O)C(C)(C)[C@@H]5CC[C@]43C)[C@@H]12 [Betulinic acid, betulinic acid, reference compound] | 250 | 250 | 250 | 3.6 | 20 | 69 | 250 | 19 | 24 | 4.6 | 250 | 2.7 | 36 | 250 | 250 | 250 | 250 |  |  |  | IC50 ([10]; Lymphocyte): 250 µM; IC50 ([14]; BT-549, p53mut/mut): 250 µM; IC50 ([15]; SAOS-2, Saos2, human rhabdomyosarcoma): 250 µM; IC50 ([17]; SW-620, 72 hours): 250 µM; IC50 ([21]; U-87 MG): 250 µM
COC(=O)C12CCC3(C)C(CCC4C5(C)CCC(OC(C)=O)C(C)(C)C5CCC43C)C1=C(C(C)C)C(=O)C2=O (stereo not drawn) [II.4, methyl 3β-acetoxy-21,22-dioxolup-18-en-28-oate] | 7.2 | 5.2 | 6.4 | 5.1 | 8.1 | 28 | 5.2 | 38 | 13 | 68 | 97 | 5.9 | 35 | 4.9 | 4.3 | 10 | 5.6 | 6.7 | 3.3 | 85 | IC50 [25]: 5 µM; IC50 ([14]; p53mut/mut): 15 µM; IC50 ([15]; Saos2, human rhabdomyosarcoma): 7.9 µM; IC50 [26]: 3.3 µM; IC50 [27]: 13 µM; IC50 ([17]; 72 hours): 5.9 µM; IC50 [28]: 4.7 µM; IC50 [29]: 2 µM; IC50 [21]: 24 µM
C=C(C=O)[C@@H]1CC[C@]2(C(=O)O)CC[C@]3(C)[C@H](CC[C@@H]4[C@@]5(C)CC[C@H](O)C(C)(C)[C@@H]5CC[C@]43C)[C@@H]12 [II.14, 3β-hydroxy-30-oxolup-20(29)-en-28-oic acid] | 3 | 2.1 | 1.6 | 7.1 | 7.7 | 7 | 3.3 | 5.9 | 7.8 | 12 | 16 | 3.7 | 9.3 | 1.3 | 3.9 | 1.6 | 4.7 | 3.3 | 2.4 | 25 | IC50 [25]: 2.4 µM; IC50 ([14]; p53mut/mut): 6.3 µM; IC50 ([15]; Saos2, human rhabdomyosarcoma): 4.8 µM; IC50 [26]: 3.6 µM; IC50 [27]: 4.3 µM; IC50 ([17]; 72 hours): 5.9 µM; IC50 [28]: 2.6 µM; IC50 [29]: 2.8 µM; IC50 [21]: 8.4 µM
C=C(C)C1CCC2(C(=O)OC)CCC3(C)C(CCC4C5(C)CCC(OC(=O)OCC(O)CO)C(C)(C)C5CCC43C)C12 (stereo not drawn) [II.45, 17β-methoxycarbonyl-28-norlup-20(29)-en-3β-yl(2,3-dihydroxypropyl)carbonate] | 13 |  |  |  |  |  |  |  |  |  |  |  |  |  |  |  |  |  |  |  | 
